Data: article PMC8523698, “Preclinical characterization of an intravenous coronavirus 3CL protease inhibitor for the potential treatment of COVID19” (Nature Communications, 2021)
Where “and” joins values, the source holds several entries; their conditions need not be identical. Equal values may be shown once.

Experiments:
[1] = Monkey pharmacokinetic study; settings: for AUC(0-inf): AUCinf; for Vd: Vdss; for AUC(0-t): po, AUCt; for Total Concn in plasma: 1mg/kg IV PF-00835231 dosed (crossover), individual animals and mean
CYP1A2 = target: T1, CYP1A2 (Homo sapiens, UniProt P05177); assay: Reversible CYP inhibition in human liver microsomes
T1 sequence (P05177 1-516): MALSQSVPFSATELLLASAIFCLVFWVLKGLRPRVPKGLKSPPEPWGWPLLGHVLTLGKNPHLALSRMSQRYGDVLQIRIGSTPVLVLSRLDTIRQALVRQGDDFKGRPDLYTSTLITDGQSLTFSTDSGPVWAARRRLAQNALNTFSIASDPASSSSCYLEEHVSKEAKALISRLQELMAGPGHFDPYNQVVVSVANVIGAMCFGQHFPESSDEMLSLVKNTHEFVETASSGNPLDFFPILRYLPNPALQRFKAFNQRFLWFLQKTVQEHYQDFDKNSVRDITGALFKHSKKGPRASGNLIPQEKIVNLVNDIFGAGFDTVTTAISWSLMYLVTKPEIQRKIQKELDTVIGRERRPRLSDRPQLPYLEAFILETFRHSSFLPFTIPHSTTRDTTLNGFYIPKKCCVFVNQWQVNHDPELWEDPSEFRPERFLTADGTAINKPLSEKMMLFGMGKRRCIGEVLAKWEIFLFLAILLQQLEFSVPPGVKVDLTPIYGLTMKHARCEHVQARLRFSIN

[2] = male, Cynomolgus, cynomolgus monkey, plasma, iv, 1 mg/kg, Mean, monkey, PF-00835231 active dosed 1mg/kg intravenous (crossover)
[3] = male, Cynomolgus, cynomolgus monkey, plasma, iv, 1 mg/kg, monkey, PF-00835231 active dosed 1mg/kg intravenous (crossover), individual monkeys
[4] = monkey, PF-00835231 active dosed 1mg/kg intravenous (crossover), individual monkeys, 1 mg/kg

COc1cccc2[nH]c(C(=O)N[C@@H](CC(C)C)C(=O)N[C@@H](C[C@@H]3CCNC3=O)C(=O)CO)cc12 [PF-00835231]
Total Concn, Mean ([1]; Monkey, 1mg/kg intravenous, Time 0.083): 1225 ng/mL
Total Concn ([1]; Monkey, 1mg/kg intravenous, Time 0.083, individual animals): 1220 ng/mL
Total Concn ([1]; Monkey, 1mg/kg intravenous, Time 0.083, individual animals, 1 mg/kg): 1230 ng/mL
Total Concn, Mean ([1]; Monkey, 1mg/kg intravenous, Time 0.25): 365 ng/mL
Total Concn ([1]; Monkey, 1mg/kg intravenous, Time 0.25, individual animals): 288 ng/mL
Total Concn ([1]; Monkey, 1mg/kg intravenous, Time 0.25, individual animals, 1 mg/kg): 442 ng/mL
Total Concn, Mean ([1]; Monkey, 1mg/kg intravenous, Time 0.5): 183 ng/mL
Total Concn ([1]; Monkey, 1mg/kg intravenous, Time 0.5, individual animals): 154 ng/mL
Total Concn ([1]; Monkey, 1mg/kg intravenous, Time 0.5, individual animals, 1 mg/kg): 212 ng/mL
Total Concn, Mean ([1]; Monkey, 1mg/kg intravenous, Time 1): 107 ng/mL
Total Concn ([1]; Monkey, 1mg/kg intravenous, Time 1, individual animals, 1 mg/kg): 89.9 ng/mL and 124 ng/mL
Total Concn, Mean ([1]; Monkey, 1mg/kg intravenous, Time 2): 46 ng/mL
Total Concn ([1]; Monkey, 1mg/kg intravenous, Time 2, individual animals, 1 mg/kg): 45.5 ng/mL and 47 ng/mL
Total Concn, Mean ([1]; Monkey, 1mg/kg intravenous, Time 4): 13 ng/mL
Total Concn ([1]; Monkey, 1mg/kg intravenous, Time 4, individual animals, 1 mg/kg): 12.2 ng/mL and 14 ng/mL
Total Concn, Mean ([1]; Monkey, 1mg/kg intravenous, Time 7): 2.6 ng/mL
Total Concn ([1]; Monkey, 1mg/kg intravenous, Time 7, individual animals, 1 mg/kg): 2.87 ng/mL and 2.25 ng/mL
Vdss ([1]; Monkey, 1mg/kg intravenous, individual animals, 1 mg/kg): 1.51 L/kg
AUC(0-inf) [1, 2]: 583 ng·h/mL
AUC(0-inf) [1, 3]: 614 ng·h/mL
clearance ([1]; male, Cynomolgus, cynomolgus monkey, plasma, iv, 1 mg/kg, Clearance, Mean, monkey, PF-00835231 active dosed 1mg/kg intravenous (crossover)): 28.7 mL/min/kg
clearance ([1]; male, Cynomolgus, cynomolgus monkey, plasma, iv, 1 mg/kg, Clearance, monkey, PF-00835231 active dosed 1mg/kg intravenous (crossover), individual monkeys): 27.1 mL/min/kg
half-life ([1]; male, Cynomolgus, cynomolgus monkey, plasma, iv, 1 mg/kg, Half life, Mean, monkey, PF-00835231 active dosed 1mg/kg intravenous (crossover)): 0.92 h
half-life ([1]; male, Cynomolgus, cynomolgus monkey, plasma, iv, 1 mg/kg, Half life, monkey, PF-00835231 active dosed 1mg/kg intravenous (crossover), individual monkeys): 1.14 h
Vd [1, 2]: 1.43 L/kg
Vd [1, 3]: 1.34 L/kg
half-life ([1]; male, cynomolgus monkey, plasma, iv, 1 mg/kg, Terminal T1/2, monkey IV (n=2, range), PF-07304814 […], PF-00835231 1.0mg/kg): < 2 h
Vd ([1]; male, cynomolgus monkey, plasma, iv, 1 mg/kg, Mean, Monkey, 1mg/kg intravenous): 1.43 L/kg
Vd ([1]; male, cynomolgus monkey, plasma, iv, 1 mg/kg, Monkey, 1mg/kg intravenous, individual animals): 1.34 L/kg
Vd ([1]; male, cynomolgus monkey, plasma, iv, 1 mg/kg, Monkey, Vdss input): 1.4 L/kg
Vd ([1]; male, cynomolgus monkey, plasma, iv, 1 mg/kg, monkey IV (n=2, range), PF-07304814 […], PF-00835231 1.0mg/kg): < 1.5 L/kg
clearance ([1]; male, cynomolgus monkey, plasma, iv, Cl, monkey IV (n=2, range), PF-07304814 […], PF-00835231 1.0mg/kg): 28.7 mL/min/kg
half-life ([1]; male, cynomolgus monkey, plasma, iv, Terminal T1/2, monkey IV (n=2, range), PF-07304814 […], PF-00835231 1.0mg/kg): 1.2 h
Vd ([1]; male, cynomolgus monkey, plasma, iv, monkey IV (n=2, range), PF-07304814 […], PF-00835231 1.0mg/kg): 1.4 L/kg
AUC(0-t) ([1]; male, cynomolgus monkey, plasma, 5 mg/kg, Mean, monkey, PF-00835231 5mg/kg PO dose): 0.466 ng·h/mL
AUC(0-t) ([1]; male, cynomolgus monkey, plasma, 5 mg/kg, monkey, PF-00835231 5mg/kg PO dose, individual monkeys): 0.328 ng·h/mL
Total Concn ([1]; monkey plasma, PF-00835231 active dosed 1mg/kg intravenous (crossover), time 0.5 h, individual monkeys, 1 mg/kg): 212 ng/mL
Total Concn ([1]; monkey plasma, PF-00835231 active dosed 1mg/kg intravenous (crossover), time 1 h, individual monkeys, 1 mg/kg): 124 ng/mL
Total Concn ([1]; monkey plasma, PF-00835231 active dosed 1mg/kg intravenous (crossover), time 2 h, individual monkeys, 1 mg/kg): 47 ng/mL
Total Concn ([1]; monkey plasma, PF-00835231 active dosed 1mg/kg intravenous (crossover), time 4 h, individual monkeys, 1 mg/kg): 14 ng/mL
Total Concn ([1]; monkey plasma, PF-00835231 active dosed 1mg/kg intravenous (crossover), time 7 h, individual monkeys, 1 mg/kg): 2.25 ng/mL
Urine Concn ([1]; monkey urine 0-7h, PF-00835231 active dosed 1mg/kg intravenous (crossover), individual monkeys, 1 mg/kg): 260 ng/mL and 304 ng/mL
Urine Concn ([1]; monkey urine 7-24h, PF-00835231 active dosed 1mg/kg intravenous (crossover), individual monkeys, 1 mg/kg): 6.76 ng/mL and 33.1 ng/mL
Total Concn in plasma ([1]; monkey, Time 0.083, 1 mg/kg): 1220 ng/mL and 1225 ng/mL
Total Concn in plasma ([1]; monkey, Time 0.25, 1 mg/kg): 442 ng/mL and 365 ng/mL
Total Concn in plasma ([1]; monkey, Time 0.5, 1 mg/kg): 212 ng/mL and 183 ng/mL
Total Concn in plasma ([1]; monkey, Time 1, 1 mg/kg): 124 ng/mL and 107 ng/mL
Total Concn in plasma ([1]; monkey, Time 2, 1 mg/kg): 47 ng/mL and 46 ng/mL
Total Concn in plasma ([1]; monkey, Time 4, 1 mg/kg): 14 ng/mL and 13 ng/mL
Total Concn in plasma ([1]; monkey, Time 7, 1 mg/kg): 2.87 ng/mL and 2.25 ng/mL and 2.6 ng/mL
AUCt ([1]; monkey, PF-00835231 5mg/kg PO dose, individual monkeys, 5 mg/kg): 0.603 ng·h/mL
AUCinf [1, 4]: 552 ng·h/mL
Half life [1, 4]: 1.27 h
Vdss [1, 4]: 1.51 L/kg
clearance [1, 4]: 30.2 mL/min/kg
Oral F% ([1]; monkey, 5mg/kg PO vs 1.0mg/kg IV): < 0.1% and < 2%
Percent of Control Activity (CYP1A2; CYP 1A2, 0.1 µM, 30-Minute Preincubation, 0.1 µM): 100.7% and 97.2%
Percent of Control Activity (CYP1A2; CYP 1A2, 0.1 µM, Zero-Minute Preincubation, 0.1 µM): 91.5%
Percent of Control Activity (CYP1A2; CYP 1A2, 0.214 µM, 30-Minute Preincubation, 0.214 µM): 101.6% and 102.2%
Percent of Control Activity (CYP1A2; CYP 1A2, 0.214 µM, Zero-Minute Preincubation, 0.214 µM): 97.3%
Percent of Control Activity (CYP1A2; CYP 1A2, 0.979 µM, 30-Minute Preincubation, 0.979 µM): 100.1% and 99.5%
Percent of Control Activity (CYP1A2; CYP 1A2, 0.979 µM, Zero-Minute Preincubation, 0.979 µM): 99.8% and 102.1%
Percent of Control Activity (CYP1A2; CYP 1A2, 2.09 µM, 30-Minute Preincubation, 2.09 µM): 98.8%
Percent of Control Activity (CYP1A2; CYP 1A2, 2.09 µM, Zero-Minute Preincubation, 2.09 µM): 90.6% and 85.1%
Percent of Control Activity (CYP1A2; CYP 1A2, 4.48 µM, 30-Minute Preincubation, 4.48 µM): 99.2% and 99.5%
Percent of Control Activity (CYP1A2; CYP 1A2, 4.48 µM, Zero-Minute Preincubation, 4.48 µM): 97.7%
Percent of Control Activity (CYP1A2; CYP 1A2, 20.5 µM, 30-Minute Preincubation, 20.5 µM): 99.6% and 97.2%
